# US9365520B2, “Heterocyclic compound” (Takeda Pharmaceutical Company Limited, priority 2014, dated 2016)
# Tested on: IL-17A gene expression
# Experiment: Effect on IL-23-induced cytokine expression in mice
# Format: in vivo, Balb/c mice
# Conditions: Mus musculus, 24 h; 10 mg/kg oral, 30 min before and 8 hr after IL-23; ear tissue; versus the negative control group; read-out: percent inhibition of IL-17A gene expression
# Protocol: Effect on IL-23-Induced Cytokine Expression in Mice
# A mouse IL-23 solution (500 ng/10 μL, prepared by Takeda Pharmaceutical Company Limited) or PBS (10 μL, negative control group) was administered intradermally in the ear of Balb/c mice (Charles River Japan, male, 7 weeks old). Twenty-four hr after administration, the ear was resected under isoflurane anesthesia. The test compound was suspended in 0.5% methylcellulose and administered orally 30 min before and 8 hr after IL-23 administration.
# RNA extraction from the ear tissue and quantitative PCR were performed as follows. Specifically, ear tissue 5 mm in diameter was punched from an area of the resected ear centering on the IL-23 injection site, and the tissue was immersed in RNAlater (QIAGEN) for at least 18 hr. The RNAlater-treated ear tissue was homogenized in 350 μL of RLT buffer (RNeasy mini kit, QIAGEN) and treated (55° C., 10 min) with Proteinase K (QIAGEN). Total RNA was then extracted according to the RNeasy mini kit protocol. The RNA thus obtained was then reverse transcribed into cDNA using the High-Capacity RNA-to-cDNA kit (Applied Biosystems), and the amount of each gene expressions was measured by real-time PCR (Viia7™, Applied Biosystems). The PCR buffer used was TaqMan Fast Advanced Master Mix (Applied Biosystems), and TaqMan Gene Expression Assays (Applied Biosystems) Mm00439618_m1 (IL-17A) and 4352341E (β-actin) were used for each gene detection. The IL-17A gene expression level was normalized to the β-actin gene expression level, and the percent inhibition of IL-17A gene expression with the test compound was then calculated.
# The results (percent inhibition of IL-17A gene expression with oral administration of the test compound) measured by the above-mentioned method are shown in Table 9.
compound,measurement,value
"CCOc1ccc2c(c1)CCN(C(=O)[C@H]1C[C@@H](C(=O)O)C1)[C@H]2C(=O)Nc1cc(F)c([Si](C)(C)C)c(F)c1 [Example 8, cis-3-(((1R)-1-((3,5-difluoro-4-(trimethylsilyl)phenyl)carbamoyl)-6-ethoxy-3,4-dihydroisoquinolin-2(1H)-yl)carbonyl)cyclobutanecarboxylic acid]",inhibition in vivo at 10 mg/kg,72%
"COCc1ccc2c(c1)CCN(C(=O)[C@H]1C[C@H](CC(=O)O)C1)[C@H]2C(=O)Nc1cc(F)c2c(c1)CCC2(C)C [Example 24, (trans-3-(((1R)-1-((7-fluoro-1,1-dimethyl-2,3-dihydro-1H-inden-5-yl)carbamoyl)-6-(methoxymethyl)-3,4-dihydroisoquinolin-2(1H)-yl)carbonyl)cyclobutyl)acetic acid]",inhibition in vivo at 10 mg/kg,74%
"COc1ccc2c(c1)CCN(C(=O)[C@H]1C[C@@H]1CC(=O)O)[C@H]2C(=O)Nc1cc(F)c([Si](C)(C)C)c(F)c1 [Example 29, ((1R,2S)-2-(((1R)-1-((3,5-difluoro-4-(trimethylsilyl)phenyl)carbamoyl)-6-methoxy-3,4-dihydroisoquinolin-2(1H)-yl)carbonyl)cyclopropyl)acetic acid]",inhibition in vivo at 10 mg/kg,73%
"COc1ccc2c(c1)CCN(C(=O)[C@H]1C[C@@H](CC(=O)O)C1)[C@H]2C(=O)Nc1cc(F)c([Si](C)(C)C)c(F)c1 [Example 25, (cis-3-(((1R)-1-((3,5-difluoro-4-(trimethylsilyl)phenyl)carbamoyl)-6-methoxy-3,4-dihydroisoquinolin-2(1H)-yl)carbonyl)cyclobutyl)acetic acid]",inhibition in vivo at 10 mg/kg,92%
"COc1ccc2c(n1)CCN(C(=O)[C@H]1C[C@@H](CC(=O)O)C1)[C@H]2C(=O)Nc1cc(F)c([Si](C)(C)C)c(F)c1 [Example 23, (cis-3-(((5R)-5-((3,5-difluoro-4-(trimethylsilyl)phenyl)carbamoyl)-2-methoxy-7,8-dihydro-1,6-naphthyridin-6(5H)-yl)carbonyl)cyclobutyl)acetic acid]",inhibition in vivo at 10 mg/kg,96%
"COc1ccc2c(n1)CCN(C(=O)[C@H]1C[C@@H]1CC(=O)O)[C@H]2C(=O)Nc1cc(F)c([Si](C)(C)C)c(F)c1 [Example 13, ((1R,2S)-2-(((5R)-5-((3,5-difluoro-4-(trimethylsilyl)phenyl)carbamoyl)-2-methoxy-7,8-dihydro-1,6-naphthyridin-6(5H)-yl)carbonyl)cyclopropyl)acetic acid]",inhibition in vivo at 10 mg/kg,91%
"COc1ccc2c(c1)CCN(C(=O)[C@H]1C[C@@H](CC(=O)O)C1)[C@H]2C(=O)Nc1ccc([Si](C)(C)C)c(F)c1 [Example 33, (cis-3-(((1R)-1-((3-fluoro-4-(trimethylsilyl)phenyl)carbamoyl)-6-methoxy-3,4-dihydroisoquinolin-2(1H)-yl)carbonyl)cyclobutyl)acetic acid]",inhibition in vivo at 10 mg/kg,94%
"COc1ccc2c(c1)CCN(C(=O)[C@H]1C[C@@H](C(=O)O)C1)[C@H]2C(=O)Nc1cc(F)c([Si](C)(C)C)c(F)c1 [Example 5, cis-3-(((1R)-1-((3,5-difluoro-4-(trimethylsilyl)phenyl)carbamoyl)-6-methoxy-3,4-dihydroisoquinolin-2(1H)-yl)carbonyl)cyclobutanecarboxylic acid]",inhibition in vivo at 10 mg/kg,57%
"CCOCC(C)(C)c1c(F)cc(NC(=O)[C@H]2c3ccc(OCC)cc3CCN2C(=O)[C@H]2C[C@@H](CC(=O)O)C2)cc1F [Example 18, (cis-3-(((1R)-6-ethoxy-1-((4-(1-ethoxy-2-methylpropan-2-yl)-3,5-difluorophenyl)carbamoyl)-3,4-dihydroisoquinolin-2(1H)-yl)carbonyl)cyclobutyl)acetic acid]",inhibition in vivo at 10 mg/kg,72%
"COc1ccc2c(c1)CCN(C(=O)[C@H]1C[C@@H](C(=O)O)C1)[C@H]2C(=O)Nc1ccc([Si](C)(C)C)c(F)c1 [Example 32, cis-3-(((1R)-1-((3-fluoro-4-(trimethylsilyl)phenyl)carbamoyl)-6-methoxy-3,4-dihydroisoquinolin-2(1H)-yl)carbonyl)cyclobutanecarboxylic acid]",inhibition in vivo at 10 mg/kg,83%
"CCOc1ccc2c(c1)CCN(C(=O)[C@H]1C[C@H](C(=O)O)C1)[C@H]2C(=O)Nc1cc(F)c([Si](C)(C)C)c(F)c1 [Example 9, trans-3-(((1R)-1-((3,5-difluoro-4-(trimethylsilyl)phenyl)carbamoyl)-6-ethoxy-3,4-dihydroisoquinolin-2(1H)-yl)carbonyl)cyclobutanecarboxylic acid]",inhibition in vivo at 10 mg/kg,57%
"COc1ccc2c(n1)CCN(C(=O)[C@H]1C[C@H](CC(=O)O)C1)[C@H]2C(=O)Nc1cc(F)c([Si](C)(C)C)c(F)c1 [Example 28, (trans-3-(((5R)-5-((3,5-difluoro-4-(trimethylsilyl)phenyl)carbamoyl)-2-methoxy-7,8-dihydro-1,6-naphthyridin-6(5H)-yl)carbonyl)cyclobutyl)acetic acid]",inhibition in vivo at 10 mg/kg,91%
"COc1ccc2c(n1)CCN(C(=O)[C@H]1C[C@@H]1CC(=O)O)[C@H]2C(=O)Nc1cc(F)c2c(c1)CCC2(C)C [Example 6, ((1R,2S)-2-(((5R)-5-((7-fluoro-1,1-dimethyl-2,3-dihydro-1H-inden-5-yl)carbamoyl)-2-methoxy-7,8-dihydro-1,6-naphthyridin-6(5H)-yl)carbonyl)cyclopropyl)acetic acid]",inhibition in vivo at 10 mg/kg,95%
"COCc1ccc2c(c1)CCN(C(=O)[C@H]1C[C@@H](CC(=O)O)C1)[C@H]2C(=O)Nc1cc(F)c2c(c1)CCC2(C)C [Example 19, (cis-3-(((1R)-1-((7-fluoro-1,1-dimethyl-2,3-dihydro-1H-inden-5-yl)carbamoyl)-6-(methoxymethyl)-3,4-dihydroisoquinolin-2(1H)-yl)carbonyl)cyclobutyl)acetic acid]",inhibition in vivo at 10 mg/kg,90%
"COc1ccc2c(n1)CCN(C(=O)[C@H]1C[C@H](CC(=O)O)C1)[C@H]2C(=O)Nc1cc(F)c2c(c1)CCC2(C)C [Example 20, (trans-3-(((5R)-5-((7-fluoro-1,1-dimethyl-2,3-dihydro-1H-inden-5-yl)carbamoyl)-2-methoxy-7,8-dihydro-1,6-naphthyridin-6(5H)-yl)carbonyl)cyclobutyl)acetic acid]",inhibition in vivo at 10 mg/kg,99%
"COc1ccc2c(n1)CCN(C(=O)[C@H]1C[C@@H](C(=O)O)C1)[C@H]2C(=O)Nc1cc(F)c([Si](C)(C)C)c(F)c1 [Example 31, cis-3-(((5R)-5-((3,5-difluoro-4-(trimethylsilyl)phenyl)carbamoyl)-2-methoxy-7,8-dihydro-1,6-naphthyridin-6(5H)-yl)carbonyl)cyclobutanecarboxylic acid]",inhibition in vivo at 10 mg/kg,85%
"COc1ccc2c(n1)CCN(C(=O)[C@H]1C[C@@H](C(=O)OCc3ccccc3)C1)[C@H]2C(=O)Nc1cc(F)c2c(c1)CCC2(C)C [Example 36, benzyl cis-3-(((5R)-5-((7-fluoro-1,1-dimethyl-2,3-dihydro-1H-inden-5-yl)carbamoyl)-2-methoxy-7,8-dihydro-1,6-naphthyridin-6(5H)-yl)carbonyl)cyclobutanecarboxylate]",inhibition in vivo at 10 mg/kg,78%
"COc1ccc2c(c1)CCN(C(=O)C1CC(CC(=O)O)C1)[C@H]2C(=O)Nc1cc(F)c([Si](C)(C)C)c(F)c1 (stereo partly drawn) [Example 4, (3-(((1R)-1-((3,5-difluoro-4-(trimethylsilyl)phenyl)carbamoyl)-6-methoxy-3,4-dihydroisoquinolin-2(1H)-yl)carbonyl)cyclobutyl)acetic acid]",inhibition in vivo at 10 mg/kg,86%
